Results reported in patent US8269017B2, “Compounds for the treatment of proliferative disorders” (Synta Pharmaceuticals Corporation, priority 2005, dated 2012).
Structures can show the parent of a compound that is named as a salt. Where two headings read alike, the source gives them in different places.

Tests used:
[1] = tested on: MDA-435; assay: Cytotoxicity in MDA-435 tumor cells (Cell Counting Kit 8); format: cell-based; conditions: Homo sapiens, MDA435, MDA-435 cells, 70 h
Description: Tumor cell line, MDA-435, was seeded in 96-well plates at 1×10^4 cells/well in DMEM medium and treated with compounds at different concentrations. Taxol was used as a positive control. The cells were incubated at 37° C. for 70 h. Viability of the cells was measured with Cell Counting Kit 8 (Dojindo, Cat #CK04). IC50 of the compounds was determined by Five-Parameter Logistic equation.

[2] = tested on: SB cells; assay: Induction of apoptosis in SB cells (Annexin V/PI, FACS); format: cell-based; conditions: 24 h; for % Apoptotic Cells Gated: 1 μM; for cytotoxicity at 1 µM: read-out: % Dead Cells Gated; for viability at 1 µM: read-out: % Live Cells Gated
Description: SB cells (2×10^5 cells/mL) were cultured in 12-well plates (2 mL/well) and were left untreated (negative control), treated with Taxol (positive control), or treated with a compound of the invention for 24 h at 37° C. After treatment, the cells were washed one time with 1×PBS and stained with FITC labeled anti-Annexin V and PI (10 μg/ml) for 15 min at room temperature. The cells were analyzed by FACSCalibur (Becton Dickinson).

[3] = tested on: MDA-435 cells; assay: Cell cycle analysis in MDA-435 cells; format: cell-based, human; conditions: 20 h, Taxol 30 nM, Comp. 1 100 nM, Comp. 2 500 nM, Comp. 3 10 nM, Comp. 6 800 mM (so in the source), Comp. 46 50 nM
Description: MDA-435 cells were cultured in 6-well plates at 1×10^6 cells/well and were untreated (negative control), treated with Taxol (positive control), or treated with a compound of the invention at 37° C. for 20 h. The cells were detached with 1× trypsin and washed one time with PBS. Cycle TEST PLUS kit (BD PharMingen, Cat #340242) was used to stain the cells. Cell cycle was analyzed with FACScomp program (BS PharMingen).

[4] = tested on: HL-60 (T-cell leukemia); assay: In vitro cytotoxicity, MTS assay, HL-60; format: cell-based, human
Description: (§1) The in vitro cytotoxicity of the compounds of the invention was determined in the following human cell lines: HL-60 (T-cell leukemia), MDA-435 and MCF-7 (human breast carcinoma), NCI-H460 and H29 (colon carcinoma), DU145 (prostate carcinoma), and MES-SA and MES-SA/DX5 (uterine sarcoma). MES-SA is a model of uterine sarcoma, and the cell are sensitive to a number of chemotherapeutic agents including doxorubicin, dactinomycin, mitomycin C, taxol and bleomycin, but resistant to vinblastine and cisplatin. MES-SA/Dx5 was established in the presence of increasing concentrations of doxorubicin. […] All cells were purchased from ATCC.
(§2) The cell lines were maintained in RPMI1640 (GIBCO) supplemented with 10% FCS, 100 units/mL penicillin, 100 ug/ml streptomycin, and 2 mM L-glutamine. Cells were split every third day and diluted to a concentration of 2×10^5 cells/mL one day before the experiment was performed. All experiments were performed on exponentially growing cell cultures. Cell densities were 2.5×10^4 cells/mL in all experiments.
(§3) Compounds of the invention were prepared by dissolving the compound at a concentration of 10 mM in 100% DMSO. Final concentrations 10, 1, 0.1, 0.01 and 0.001 μM were obtained by diluting the stock solution directly into the tissue culture medium.

[5] = tested on: MES-SA (uterine sarcoma); assay: In vitro cytotoxicity, MTS assay, MES-SA; format: cell-based, human; conditions: MES-SA (Uterine Carcinoma)
Description: as §1, §2, §3

[6] = tested on: MES-SA/DX5 (uterine sarcoma, MDR-1); assay: cells; format: cell-based; conditions: MES/DX5 (MDR-1), MTS assay
Description: as §1, §2, §3

[7] = tested on: microtubules of CV-1 cells; assay: Microtubule disruption in CV-1 cells resistant to colchicine and vincristine; format: cell-based, Africa green monkey; conditions: 500 nM
Text: The effects of compounds of the invention on microtubules were studied in CV-1 cells. The microtubules of CV-1 cells are known to be resistant to the depolymerizing effects of colchicine and vincristine. […] Cells were then fixed and stained to examine microtubule structure.

[8] = Homo sapiens, HL-60, HL60 (Leukemia), 72 hours, read-out: IC50
[9] = Homo sapiens, 72 hours, read-out: IC50
[10] = Homo sapiens, HL-60, 72 h, HL60 (Leukemia)

Row | SMILES | IC50 [1] | % Apoptotic Cells Gated [2] | cytotoxicity at 1 µM [2] | viability at 1 µM [2] | IC50 ([6]; Homo sapiens, MDR1, 72 h) | also measured
1 | CCc1cc(-c2oncc2-c2ccc3ccccc3c2)c(O)cc1OC [Compound 2, 4-(Naphthalen-2-yl)-5-(2-hydroxy-4-methoxy-5-ethyl-phenyl)-isoxazole] | 79 nM | 22.73% | 22.7% | 45.7% | – | Apoptotic Population (%) [3]: 11.17%; G0/G1 Phase (%) [3]: 21.25%; G2/M Phase (%) [3]: 30.53%; S Phase (%) [3]: 37.67%
2 | CCc1cc(-c2oncc2-c2ccc(OC)cc2)c(O)cc1OC [Compound 44, 4-(4-Methoxy-phenyl)-5-(2-hydroxy-4-methoxy-5-ethyl-phenyl)-isoxazole] | 200 nM | 16.05% | 12.3% | 64.8% | – | –
3 | COc1cc(-c2oncc2-c2ccc(C(C)C)cc2)cc(OC)c1OC [Compound 45, 4-(4-Isopropyl-phenyl)-5-(3,4,5-trimethoxy-phenyl)-isoxazole] | 219 nM | 17.74% | 15.4% | 62% | – | –
4 | CCc1ccc(-c2cnoc2-c2cc(OC)c(OC)c(OC)c2)cc1 [Compound 47, 4-(4-Ethyl-phenyl)-5-(3,4,5-trimethoxy-phenyl)-isoxazole] | 47 nM | 13.83% | 14.8% | 61.9% | – | –
5 | COc1ccc(-c2oncc2-c2ccc3c(c2)OCCO3)cc1OC [Compound 161, 4-(2,3-Dihydro-benzo[1,4]dioxin-6-yl)-5-(3,4-dimethoxy-phenyl)isoxazole] | 591 nM | 14.61% | 10.5% | 66.8% | – | –
6 | CCc1cc(-c2oncc2-c2ccc(C)c(C)c2)c(O)cc1OC [Compound 162, 4-(3,4-Dimethy-phenyl)-5-(2-hydroxy-4-methoxy-5-ethyl-phenyl)-isoxazole] | 842 nM | 17.74% | 11.5% | 64.6% | – | –
7 | COc1cc(-c2cnoc2-c2ccc(Br)cc2)cc(OC)c1OC [Compound 168, 4-(3,4,5-Trimethoxy-phenyl)-5-(4-bromo-phenyl)-isoxazole] | > 1000 nM | 15.49% | 14.4% | 60.4% | – | –
8 | COc1ccc(-c2cnoc2-c2cc(OC)c(OC)c(OC)c2)cc1NC(=O)C(N)CO (stereo not drawn) [Compound 170, 2-amino-3-hydroxy-N-(2-methoxy-5-[5-(3,4,5-trimethoxy-phenyl)-isoxazol-4-yl)-phenyl)propanamide hydrochloride] | – | – | – | – | 3 nM | IC50 [4, 8]: 2 nM; IC50 [5, 9]: 9 nM
9 | COc1ccc(-c2cnoc2-c2cc(OC)c(OC)c(OC)c2)cc1NC(=O)C(C)N (stereo not drawn) [Compound 171, 2-amino-N-(2-methoxy-5-[5-(3,4,5-trimethoxy-phenyl)-isoxazol-4-yl)-phenyl)propanamide] | – | – | – | – | – | IC50 ([4]; HL60 (Leukemia), 72 hours): 5 nM; IC50 ([5]; 72 hours): 2 nM; IC50 ([6]; 72 hours): 4 nM
10 | COc1ccc(-c2cnoc2-c2cc(OC)c(OC)c(OC)c2)cc1NC(=O)C(N)CCSC (stereo not drawn) [Compound 172, 2-amino-N-(2-methoxy-5-(5-(3,4,5-trimethoxyphenyl)isoxazol-4-yl)phenyl)-4-(methylthio)butanamide Hydrochloride] | – | – | – | – | 0.1 nM | IC50 [4, 8]: 5 nM; IC50 [5, 9]: 0.1 nM
11 | CCC(N)C(=O)Nc1cc(-c2cnoc2-c2cc(OC)c(OC)c(OC)c2)ccc1OC (stereo not drawn) [Compound 173, 2-amino-N-(2-methoxy-5-(5-(3,4,5-trimethoxyphenyl)isoxazol-4-yl)phenyl)butanamide Hydrochloride] | – | – | – | – | 0.1 nM | IC50 [4, 8]: 2 nM; IC50 [5, 9]: 0.1 nM
12 | COc1ccc(-c2cnoc2-c2cc(OC)c(OC)c(OC)c2)cc1NC(=O)C(N)CC(C)C (stereo not drawn) [Compound 175, 2-amino-N-(2-methoxy-5-(5-(3,4,5-trimethoxyphenyl)isoxazol-4-yl)phenyl)-4-methylpentanamide Hydrochloride] | – | – | – | – | 0.1 nM | IC50 [4, 8]: 5 nM; IC50 [5, 9]: 0.1 nM
13 | COc1ccc(CC(N)C(=O)Nc2cc(-c3cnoc3-c3cc(OC)c(OC)c(OC)c3)ccc2OC)cc1 (stereo not drawn) [Compound 176, 2-amino-N-(2-methoxy-5-(5-(3,4,5-trimethoxyphenyl)isoxazol-4-yl)phenyl)-3-(4-methoxyphenyl)propanamide] | – | – | – | – | 0.1 nM | IC50 [4, 10]: 64 nM; IC50 ([5]; Homo sapiens, MES-SA, 72 h): 0.1 nM
14 | COc1ccc(-c2cnoc2-c2cc(OC)c(OC)c(OC)c2)cc1OP(=O)(O)O [Compound 177, 2-methoxy-5-[5-(3,4,5-trimethoxy-phenyl)-isoxazol-4-yl)-phenyl dihydrogen phosphate] | – | – | – | – | 4 nM | IC50 ([4]; HL60 (Leukemia), 72 hours): 52 nM; IC50 ([5]; Homo sapiens, MES-SA, 72 h): 8 nM
15 | COc1ccc(-c2cnoc2-c2cc(OC)c(OC)c(OC)c2)cc1NC(=O)C(C)N (stereo not drawn) [Compound 204, 2-amino-N-(2-methoxy-5-(5-(3,4,5-trimethoxyphenyl)isoxazol-4-yl)phenyl)propanamide Hydrochloride] | – | – | – | – | – | IC50 ([4]; HL60 (Leukemia), 72 hours, Hydrochloride): 500 nM; IC50 ([5]; 72 hours, Hydrochloride): 106 nM; IC50 ([6]; 72 hours, Hydrochloride): 120 nM
16 | COC(=O)CNCC(=O)Nc1cc(-c2cnoc2-c2cc(OC)c(OC)c(OC)c2)ccc1OC [Compound 241, methyl 2-(2-(2-methoxy-5-(5-(3,4,5-trimethoxyphenyl)isoxazol-4-yl)phenylamino)-2-oxoethylamino)acetate] | – | – | – | – | 63 nM | IC50 [4, 8]: 600 nM; IC50 [5, 9]: 136 nM
17 | COc1ccc(-c2cnoc2-c2cc(OC)c(OC)c(OC)c2)cc1NC(=O)CCN [Compound 243, 3-amino-N-(2-methoxy-5-(5-(3,4,5-trimethoxyphenyl)isoxazol-4-yl)phenyl)propanamide Hydrochloride] | – | – | – | – | 38 nM | IC50 [4, 10]: 63 nM; IC50 ([5]; Homo sapiens, MES-SA, 72 h): 50 nM
18 | COc1cc2c(c(OC)c1OC)-c1ccc(OC)c(=O)cc1[C@@H](NC(C)=O)CC2 [colchicine] | – | – | – | – | – | microtubule structure ([7]; 24 hr): disorganized but clear microtubule structures were found; microtubule structure ([7]; 48 hr): microtubule structures were still found
19 | CC[C@]1(O)C[C@H]2CN(CCc3c([nH]c4ccccc34)[C@@](C(=O)OC)(c3cc4c(cc3OC)N(C=O)[C@H]3[C@@](O)(C(=O)OC)[C@H](OC(C)=O)[C@]5(CC)C=CCN6CC[C@]43[C@@H]65)C2)C1 [vincristine, Vincristine] | – | – | – | – | – | microtubule structure ([7]; 24 hr): disorganized but clear microtubule structures were found; microtubule structure ([7]; 48 hr): microtubule structures were still found
